Source: patent US9556202B2, “Sulfonamide derivatives and methods of use thereof for improving the pharmacokinetics of a drug” (MERCK SHARP & DOHME CORP., priority 2012, dated 2017)

Columns and labels:
[1] = target: T1, CYP1A2 (Homo sapiens, UniProt P05177); assay: Cocktail CYP inhibition assay in human liver microsomes, phenacetin O-deethylation; format: in vitro ADME; conditions: human liver microsomes 0.1 mg/mL, 10 μM phenacetin, 10 min 37° C.; test conc. up to 10 μM; unit inferred
T1 construct: 0.1 mg/mL protein human liver microsomes (BD Gentest); tissue BD Gentest; host or cells: human liver microsomes
T1 sequence (P05177 1-516): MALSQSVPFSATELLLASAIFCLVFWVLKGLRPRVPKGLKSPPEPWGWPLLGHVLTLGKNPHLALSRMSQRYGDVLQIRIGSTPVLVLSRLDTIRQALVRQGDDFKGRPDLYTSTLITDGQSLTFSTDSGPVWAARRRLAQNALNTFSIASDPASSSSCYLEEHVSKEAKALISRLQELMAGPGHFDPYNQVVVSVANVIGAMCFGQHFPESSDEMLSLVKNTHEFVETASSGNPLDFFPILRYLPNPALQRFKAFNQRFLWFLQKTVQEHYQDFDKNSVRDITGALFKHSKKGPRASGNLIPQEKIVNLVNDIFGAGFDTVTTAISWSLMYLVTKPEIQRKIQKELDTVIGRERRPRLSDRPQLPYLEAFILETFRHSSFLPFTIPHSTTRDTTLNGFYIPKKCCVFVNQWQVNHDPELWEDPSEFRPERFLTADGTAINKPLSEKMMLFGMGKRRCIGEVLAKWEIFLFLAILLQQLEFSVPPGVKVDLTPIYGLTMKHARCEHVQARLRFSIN
Description: (§1) Determination of IC50 in a Cocktail Assay for CYPs 1A2, 2C9, 2C19, 2D6 and 3A4
(§2) This assay was performed in a standard 96-well plate design. IC50 values were calculated from the percent inhibition observed for each test compound at 6 concentrations (for example, 0.0032, 0.016, 0.08, 0.4, 2 and 10 μM). The incubation substrate mix contains 10 μM phenacetin (1A2), 5 μM diclofenac (2C9), 30 μM mephenytoin (2C19), 5 μM dextromethorphan (2D6) and 2 μM midazolam (3A4), 0.1 mg/mL protein human liver microsomes (BD Gentest), 1 mM NAPDH, 3.3 mM MgCl2 and 100 mM potassium phosphate buffer (pH 7.4). The production of the metabolite of each probe substrate was determined after incubation for 10 min at 37° C. Quantitation of the metabolite peak area ratio against an internal standard (tolbutamide) was determined by LC/MS/MS analysis following acetonitrile treatment of the incubations.
(§3) Samples were analyzed in the MRM mode with a SCIEX API-4000 mass spectrometer (Applied Biosystems, Foster City, Calif.), with a Shimadzu LC-20 AD pump (Shimadzu corporation, Kyoto, JP) and a CTC PAL autosampler (Agilent Technologies, Switzerland). A Phenomenex, Luna, 5 μm, 100 A, 2.00×30 mm HPLC column was used for the separation. The mobile phases were: (A) 0.1% formic acid in water and (B) 0.1% formic acid in acetonitrile. The binary gradient was as follows.
(§4) The peak area ratio of the analyte to the internal standard was used to quantify the metabolite. The values of peak area ratios in the presence of test compound were compared to those of maximum or minimum controls and were expressed as % inhibition by interpolating between the maximum and minimum peak area ratios. Incubations with no inhibitor were defined as the maxima.
(§5) The following equation was used to calculate the % inhibition: [1−[(X−Low control)/(High control−Low control)]]*100
(§6) For the IC50 calculation, SigmaPlot was used to plot the mean % inhibition versus the test compound concentrations and for non-linear regression analysis of the data. […]

[2] = target: T2, CYP2D6 (Homo sapiens, UniProt P10635); assay: Cocktail CYP inhibition assay in human liver microsomes, dextromethorphan O-demethylation; format: in vitro ADME; conditions: human liver microsomes 0.1 mg/mL, 5 μM dextromethorphan, 10 min 37° C.; unit inferred
T2 construct: 0.1 mg/mL protein human liver microsomes (BD Gentest); tissue BD Gentest; host or cells: human liver microsomes
Description: as §1, §2, §3, §4, §5, §6

[3] = target: T3, CYP3A4 (Homo sapiens, UniProt P08684); assay: IC50 vs CYP3A by inhibition of lopinavir metabolism in human liver microsomes; format: biochemical; conditions: human liver microsomes 0.01 mg/mL, 1.5 μM lopinavir, 8 min 37° C.; test conc. e.g. 0.098-100 nM; unit inferred; read-out: 3A4(LPV)
T3 construct: 0.01 mg/mL protein human liver microsomes (BD Gentest); tissue BD Gentest; host or cells: human liver microsomes
Description: Determination of IC50 Vs CYP3A by Measurement of Inhibition of Lopinavir Metabolism
This assay was performed in a standard 96-well plate design. IC50 values were calculated from the percent inhibition observed for each test compound at 6 concentrations (for example, 0.098, 0.391, 1.56, 6.25, 25 and 100 nM). The incubation substrate mix contains 1.5 μM lopinavir, 0.01 mg/mL protein human liver microsomes (BD Gentest), 1 mM NAPDH, 3.3 mM MgCl2 and 100 mM potassium phosphate buffer (pH 7.4). The production of the sum of three hydroxylated metabolites (M2: 6-hydroxy lopinavir, M3: 4-hydroxy lopinavir, M4: 4-hydroxy lopinavir (epimer of M3), Kumar et al., 1999) was determined after incubation for 8 min at 37° C. Quantitation of the metabolite peak area ratio against an internal standard (tolbutamide) was determined by LC/MS/MS analysis following acetonitrile treatment of the incubations.
as §3
as §4, with “maxima and with 5 μM ketoconazole were defined as the minima.” for “maxima.”
as §5
For the IC50 calculation, SigmaPlot was used to plot the mean % inhibition versus the test compound concentrations and for non-linear regression analysis of the data. Depending on the range of data points defining the inhibition curve, the data may have been fit to the 4-parameter logistic equation.

T3 sequence (P08684 2-503): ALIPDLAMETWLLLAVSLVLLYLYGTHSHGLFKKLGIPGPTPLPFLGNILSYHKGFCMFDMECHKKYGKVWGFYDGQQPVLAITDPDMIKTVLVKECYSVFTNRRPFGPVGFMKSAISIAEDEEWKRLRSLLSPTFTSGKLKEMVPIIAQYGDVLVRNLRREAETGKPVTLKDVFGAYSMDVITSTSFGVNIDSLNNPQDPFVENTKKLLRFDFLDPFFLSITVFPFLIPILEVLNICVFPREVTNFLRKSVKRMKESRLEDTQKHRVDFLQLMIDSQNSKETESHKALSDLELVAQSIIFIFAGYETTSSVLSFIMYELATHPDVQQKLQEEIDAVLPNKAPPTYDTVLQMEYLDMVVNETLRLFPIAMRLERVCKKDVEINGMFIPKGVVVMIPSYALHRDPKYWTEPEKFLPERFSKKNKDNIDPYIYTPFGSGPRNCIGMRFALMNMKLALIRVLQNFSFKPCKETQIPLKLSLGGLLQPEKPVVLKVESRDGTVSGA
T2 sequence (P10635 whole entry): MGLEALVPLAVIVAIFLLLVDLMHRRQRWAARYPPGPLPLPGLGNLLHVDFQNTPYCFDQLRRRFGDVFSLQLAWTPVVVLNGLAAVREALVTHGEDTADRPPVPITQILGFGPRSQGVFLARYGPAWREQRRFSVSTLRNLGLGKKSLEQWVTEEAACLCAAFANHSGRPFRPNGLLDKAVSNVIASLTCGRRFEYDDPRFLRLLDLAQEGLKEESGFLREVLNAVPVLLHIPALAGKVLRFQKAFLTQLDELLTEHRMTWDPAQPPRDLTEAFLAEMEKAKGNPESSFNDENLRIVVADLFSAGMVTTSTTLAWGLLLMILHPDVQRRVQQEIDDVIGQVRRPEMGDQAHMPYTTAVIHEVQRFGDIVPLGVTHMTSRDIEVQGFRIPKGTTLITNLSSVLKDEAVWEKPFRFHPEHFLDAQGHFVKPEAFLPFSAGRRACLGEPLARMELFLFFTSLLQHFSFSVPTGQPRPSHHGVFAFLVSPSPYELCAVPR

IC50 [1]	IC50 [2]	IC50 [3]	Compound
> 10 µM	7.13 µM	0.0025 µM	C[C@H](c1ccc(F)cc1)n1cncc1C1CCCC2CN(S(=O)(=O)c3cnc(Nc4ccccn4)s3)CCN21 (single isomer, unassigned) [Compound 38]
> 10 µM	8.89 µM	0.0038 µM	COCC(c1cncn1[C@H](C)c1ccc(F)cc1)N1CCN(S(=O)(=O)c2cnc(N3CCN(C)CC3)s2)CC1 (single isomer, unassigned) [Compound 35]
> 10 µM	4.08 µM	0.0043 µM	COCCC(c1cncn1[C@H](C)c1ccc(F)cc1)N1CCN(S(=O)(=O)c2cnc(N3CCN(C)CC3)s2)CC1 (single isomer, unassigned) [Compound 36]
